Laboratory results taken from patent US7253282B2 (Hoffman-La Roche Inc., priority 2004, dated 2007).

Assays:
[1] = target: T1, GST-LXRα-LBD (human LXR alpha, aa 164 to 447) (Homo sapiens, UniProt Q13133); assay: Radioligand binding assay (SPA), LXR alpha; details: GST-LXRα-LBD on SPA beads, read-out: LXRalpha Binding IC50
T1 construct: human LXR alpha (aa 164 to 447); made in house; host or cells: E. coli BL21(pLysS)
T1 sequence (Q13133 164-447): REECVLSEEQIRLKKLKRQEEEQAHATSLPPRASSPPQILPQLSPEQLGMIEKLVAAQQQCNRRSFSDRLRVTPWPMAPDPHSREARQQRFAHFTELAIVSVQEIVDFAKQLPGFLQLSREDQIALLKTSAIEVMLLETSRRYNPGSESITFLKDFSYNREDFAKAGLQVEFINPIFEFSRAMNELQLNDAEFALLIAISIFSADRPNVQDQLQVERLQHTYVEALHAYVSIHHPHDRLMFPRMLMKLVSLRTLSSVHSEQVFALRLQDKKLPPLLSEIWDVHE
Source text: (§1) Mammalian expression vectors were constructed to express full-length human LXR alpha and LXR beta. Bacterial expression vectors were constructed to produce glutathione-s-transferase (GST) fused to the ligand binding domains (LBD) of human LXR alpha (aa 164 to 447) and human LXR beta (aa 155 to 460). To accomplish this, the portions of the sequences encoding the LBDs were amplified from full-length clones by PCR and then subcloned into the plasmid vectors. Final clones were verified by DNA sequence analysis (Willy et al., Genes Dev. 1995, 9:1033-45; Song et al., Proc Natl Acad Sci USA. 1994, 91:10809-13).
(§2) Induction, expression, and purification of GST-LBD fusion proteins were performed in E. coli strain BL21(pLysS) cells by standard methods (Ref: Current Protocols in Molecular Biology, Wiley Press, edited by Ausubel et al).
(§3) LXR alpha and LXR beta receptor binding were assayed in buffer consisting of 50 mM HEPES, pH 7.4, 10 mM NaCl, 5 mM MgCl2. For each 96-well reaction, 500 ng of GST-LXRα-LBD or 700 ng of GST-LXR beta-LBD fusion proteins were bound to 80 μg or 40 μg SPA beads (Pharmacia Amersham) respectively, in a final volume of 50 μl by shaking. […] All binding assays were performed in 96-well plates and the amount of bound ligand was measured on a Packard TopCount using OptiPlates (Packard). Dose response curves were measured within a range of concentration from 10^−10 M to 10^−4 M.

[2] = target: T2, GST-LXR beta-LBD (human LXR beta, aa 155 to 460) (Homo sapiens, UniProt P55055); assay: Radioligand binding assay (SPA), LXR beta; details: GST-LXR beta-LBD on SPA beads, read-out: LXRbeta Binding IC50
T2 construct: human LXR beta (aa 155 to 460); made in house; host or cells: E. coli BL21(pLysS)
T2 sequence (P55055 155-460): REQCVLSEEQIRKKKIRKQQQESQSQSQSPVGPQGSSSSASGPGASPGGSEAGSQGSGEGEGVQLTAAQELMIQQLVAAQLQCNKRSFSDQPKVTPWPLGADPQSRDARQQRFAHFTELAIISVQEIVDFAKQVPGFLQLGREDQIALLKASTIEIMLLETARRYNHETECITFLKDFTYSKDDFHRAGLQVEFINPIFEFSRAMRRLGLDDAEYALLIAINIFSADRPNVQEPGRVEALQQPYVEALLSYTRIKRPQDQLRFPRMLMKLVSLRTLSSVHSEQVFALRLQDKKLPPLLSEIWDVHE
Source text: as §1, §2, §3

Cc1nn(C)c(Cl)c1S(=O)(=O)N(CC(F)(F)F)[C@H]1CC[C@H](C(O)(C(F)(F)F)C(F)(F)F)CC1 [Example 17] gave an IC50 [1] of 1500 nM and an IC50 [2] of 1400 nM.

Compound O=S(=O)(c1ccccc1)N(CC(F)(F)F)[C@H]1CC[C@H](C(O)(C(F)(F)F)C(F)(F)F)CC1 [Example 1, trans N-(2,2,2-trifluoro-ethyl)-N-[4-(2,2,2-trifluoro-1-hydroxy-1-trifluoromethyl-ethyl)-cyclohexyl]-benzenesulfonamide] has an IC50 [1] of 20 nM and an IC50 [2] of 70 nM.
